Assay results reported in patent US9006487B2, “Amine-containing lipids and uses thereof” (Massachusetts Institute of Technology, priority 2005, dated 2015).
Values joined by “and” are separate entries in the source; they are usually repeats but may differ in a detail not shown here. Equal values may be shown once.

Tested on: cos-7 cells
Assay: DNA transfection: luciferase expression relative to Lipofectamine 2000
Assay type: cell-based
Settings: for Luciferase expression as a percentage of that achieved using Lipofectamine 2000: 300 ng Luciferase DNA per well, luciferase assay after 48 hours; for luciferase expression (second part of table, values relative to LIPO2000): 300 ng of DNA per well
Procedure, shortened: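 cos-7 cells were transfected with 300 ng/well luciferase DNA complexed with lipid at ratios from 2.5 to 25 w/w. Bright-Glo luminescence was read after 48 hours and converted to ng luciferase by standard curve. Data are percent of the Lipofectamine 2000 control (2.5 w/w).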

## CCCCCCCCCCCCCCOC(=O)CCN(CCCN(C)C)CCC(=O)OCCCCCCCCCCCCCC [LF80]
lipid/DNA 2.5 w/w
  Luciferase expression as a percentage of that achieved using Lipofectamine 2000: 2.5%
lipid/DNA 5 w/w
  Luciferase expression as a percentage of that achieved using Lipofectamine 2000: 35.1%
lipid/DNA 10 w/w
  Luciferase expression as a percentage of that achieved using Lipofectamine 2000: 35.5%
lipid/DNA 15 w/w
  Luciferase expression as a percentage of that achieved using Lipofectamine 2000: 34.3%
lipid/DNA 20 w/w
  Luciferase expression as a percentage of that achieved using Lipofectamine 2000: 19.9%
lipid/DNA 25 w/w
  Luciferase expression as a percentage of that achieved using Lipofectamine 2000: 14.8%

## CCCCCCCCCCCCCCOC(=O)CCN(CCCN(CC)CC)CCC(=O)OCCCCCCCCCCCCCC [LF81]
lipid/DNA 2.5 w/w
  Luciferase expression as a percentage of that achieved using Lipofectamine 2000: 0.5%
lipid/DNA 5 w/w
  Luciferase expression as a percentage of that achieved using Lipofectamine 2000: 1.6%
lipid/DNA 10 w/w
  Luciferase expression as a percentage of that achieved using Lipofectamine 2000: 1.5%
lipid/DNA 15 w/w
  Luciferase expression as a percentage of that achieved using Lipofectamine 2000: 4.9%
lipid/DNA 20 w/w
  Luciferase expression as a percentage of that achieved using Lipofectamine 2000: 4.6%
lipid/DNA 25 w/w
  Luciferase expression as a percentage of that achieved using Lipofectamine 2000: 4.0%

## CCCCCCCCCCCCCCOC(=O)CCN(CCC(=O)OCCCCCCCCCCCCCC)CCN1CCCCC1 [LF82]
lipid/DNA 2.5 w/w
  Luciferase expression as a percentage of that achieved using Lipofectamine 2000: 0.4%
lipid/DNA 5 w/w
  Luciferase expression as a percentage of that achieved using Lipofectamine 2000: 0.3%
lipid/DNA 10 w/w
  Luciferase expression as a percentage of that achieved using Lipofectamine 2000: 0.7%
lipid/DNA 15 w/w
  Luciferase expression as a percentage of that achieved using Lipofectamine 2000: 0.5%
lipid/DNA 20 w/w
  Luciferase expression as a percentage of that achieved using Lipofectamine 2000: 0.6%
lipid/DNA 25 w/w
  Luciferase expression as a percentage of that achieved using Lipofectamine 2000: 0.8%

## CCCCCCCCCCCCCCOC(=O)CCN(CCC(=O)OCCCCCCCCCCCCCC)CCN(CCO)CCO [LF86]
lipid/DNA 2.5 w/w
  Luciferase expression as a percentage of that achieved using Lipofectamine 2000: 21.5%
lipid/DNA 5 w/w
  Luciferase expression as a percentage of that achieved using Lipofectamine 2000: 17.9%
lipid/DNA 10 w/w
  Luciferase expression as a percentage of that achieved using Lipofectamine 2000: 19.6%
lipid/DNA 15 w/w
  Luciferase expression as a percentage of that achieved using Lipofectamine 2000: 21.2%
lipid/DNA 20 w/w
  Luciferase expression as a percentage of that achieved using Lipofectamine 2000: 10.5%
lipid/DNA 25 w/w
  Luciferase expression as a percentage of that achieved using Lipofectamine 2000: 10.4%

## CCCCCCCCCCCCCCOC(=O)CCN(CCCN(CCO)CCO)CCC(=O)OCCCCCCCCCCCCCC [LF87]
lipid/DNA 2.5 w/w
  Luciferase expression as a percentage of that achieved using Lipofectamine 2000: 19.4%
lipid/DNA 5 w/w
  Luciferase expression as a percentage of that achieved using Lipofectamine 2000: 11.3%
lipid/DNA 10 w/w
  Luciferase expression as a percentage of that achieved using Lipofectamine 2000: 30.2%
lipid/DNA 15 w/w
  Luciferase expression as a percentage of that achieved using Lipofectamine 2000: 13.3%
lipid/DNA 20 w/w
  Luciferase expression as a percentage of that achieved using Lipofectamine 2000: 11.0%
lipid/DNA 25 w/w
  Luciferase expression as a percentage of that achieved using Lipofectamine 2000: 10.0%

## CCCCCCCCCCCCCCOC(=O)CCN(CCC(=O)OCCCCCCCCCCCCCC)CCN1CCOCC1 [LF90]
lipid/DNA 2.5 w/w
  Luciferase expression as a percentage of that achieved using Lipofectamine 2000: 0.4% and 0.5%
lipid/DNA 5 w/w
  Luciferase expression as a percentage of that achieved using Lipofectamine 2000: 0.5% and 0.4%
lipid/DNA 10 w/w
  Luciferase expression as a percentage of that achieved using Lipofectamine 2000: 0.3% and 0.7%
lipid/DNA 15 w/w
  Luciferase expression as a percentage of that achieved using Lipofectamine 2000: 1.3% and 0.4%
lipid/DNA 20 w/w
  Luciferase expression as a percentage of that achieved using Lipofectamine 2000: 1.1% and 0.4%
lipid/DNA 25 w/w
  Luciferase expression as a percentage of that achieved using Lipofectamine 2000: 1.5% and 0.4%

## CCCCCCCCCCCCCCOC(=O)CCN(CCCN1CCOCC1)CCC(=O)OCCCCCCCCCCCCCC [LF91]
lipid/DNA 2.5 w/w
  Luciferase expression as a percentage of that achieved using Lipofectamine 2000: 0.5%
lipid/DNA 5 w/w
  Luciferase expression as a percentage of that achieved using Lipofectamine 2000: 0.5%
lipid/DNA 10 w/w
  Luciferase expression as a percentage of that achieved using Lipofectamine 2000: 0.8%
lipid/DNA 15 w/w
  Luciferase expression as a percentage of that achieved using Lipofectamine 2000: 1.4%
lipid/DNA 20 w/w
  Luciferase expression as a percentage of that achieved using Lipofectamine 2000: 1.3%
lipid/DNA 25 w/w
  Luciferase expression as a percentage of that achieved using Lipofectamine 2000: 1.6%

## CCCCCCCCCCCCCCOC(=O)CCN(CCCn1ccnc1)CCC(=O)OCCCCCCCCCCCCCC [LF93]
lipid/DNA 2.5 w/w
  Luciferase expression as a percentage of that achieved using Lipofectamine 2000: 32.0%
  luciferase expression (second part of table, values relative to LIPO2000): 32.0
lipid/DNA 5 w/w
  Luciferase expression as a percentage of that achieved using Lipofectamine 2000: 50.4%
  luciferase expression (second part of table, values relative to LIPO2000): 50.4
lipid/DNA 10 w/w
  Luciferase expression as a percentage of that achieved using Lipofectamine 2000: 15.0%
  luciferase expression (second part of table, values relative to LIPO2000): 15.0
lipid/DNA 15 w/w
  Luciferase expression as a percentage of that achieved using Lipofectamine 2000: 150.7%
  luciferase expression (second part of table, values relative to LIPO2000): 150.7
lipid/DNA 20 w/w
  Luciferase expression as a percentage of that achieved using Lipofectamine 2000: 143.2%
  luciferase expression (second part of table, values relative to LIPO2000): 143.2
lipid/DNA 25 w/w
  Luciferase expression as a percentage of that achieved using Lipofectamine 2000: 171.3%
  luciferase expression (second part of table, values relative to LIPO2000): 171.3

## CCCCCCCCCCCCCCOC(=O)CCN(CCC(=O)OCCCCCCCCCCCCCC)CCN(CCC(=O)OCCCCCCCCCCCCCC)CCC(=O)OCCCCCCCCCCCCCC [LF99]
lipid/DNA 2.5 w/w
  Luciferase expression as a percentage of that achieved using Lipofectamine 2000: 32.2%
  luciferase expression (second part of table, values relative to LIPO2000): 32.2
lipid/DNA 5 w/w
  Luciferase expression as a percentage of that achieved using Lipofectamine 2000: 49.8%
  luciferase expression (second part of table, values relative to LIPO2000): 49.8
lipid/DNA 10 w/w
  Luciferase expression as a percentage of that achieved using Lipofectamine 2000: 26.5%
  luciferase expression (second part of table, values relative to LIPO2000): 26.5
lipid/DNA 15 w/w
  Luciferase expression as a percentage of that achieved using Lipofectamine 2000: 10.7%
  luciferase expression (second part of table, values relative to LIPO2000): 10.7
lipid/DNA 20 w/w
  Luciferase expression as a percentage of that achieved using Lipofectamine 2000: 6.0%
  luciferase expression (second part of table, values relative to LIPO2000): 6.0
lipid/DNA 25 w/w
  Luciferase expression as a percentage of that achieved using Lipofectamine 2000: 6.2%
  luciferase expression (second part of table, values relative to LIPO2000): 6.2

## CCCCCCCCCCCCCCCOC(=O)CCN(CCCOC)CCC(=O)OCCCCCCCCCCCCCCC [LG1]
lipid/DNA 2.5 w/w
  Luciferase expression as a percentage of that achieved using Lipofectamine 2000: 0.0%
lipid/DNA 5 w/w
  Luciferase expression as a percentage of that achieved using Lipofectamine 2000: 0.0%
lipid/DNA 10 w/w
  Luciferase expression as a percentage of that achieved using Lipofectamine 2000: 0.0%
lipid/DNA 15 w/w
  Luciferase expression as a percentage of that achieved using Lipofectamine 2000: 0.0%
lipid/DNA 20 w/w
  Luciferase expression as a percentage of that achieved using Lipofectamine 2000: 0.0%
lipid/DNA 25 w/w
  Luciferase expression as a percentage of that achieved using Lipofectamine 2000: 0.0%

## CCCCCCCCCCCCCCCOC(=O)CCN(CCOC)CCC(=O)OCCCCCCCCCCCCCCC [LG10]
lipid/DNA 2.5 w/w
  Luciferase expression as a percentage of that achieved using Lipofectamine 2000: 0.0%
lipid/DNA 5 w/w
  Luciferase expression as a percentage of that achieved using Lipofectamine 2000: 0.0%
lipid/DNA 10 w/w
  Luciferase expression as a percentage of that achieved using Lipofectamine 2000: 0.0%
lipid/DNA 15 w/w
  Luciferase expression as a percentage of that achieved using Lipofectamine 2000: 0.0%
lipid/DNA 20 w/w
  Luciferase expression as a percentage of that achieved using Lipofectamine 2000: 0.0%
lipid/DNA 25 w/w
  Luciferase expression as a percentage of that achieved using Lipofectamine 2000: 0.0%

## CCCCCCCCCCCCCCCOC(=O)CCN(CCOCC)CCC(=O)OCCCCCCCCCCCCCCC [LG11]
lipid/DNA 2.5 w/w
  Luciferase expression as a percentage of that achieved using Lipofectamine 2000: 0.0%
lipid/DNA 5 w/w
  Luciferase expression as a percentage of that achieved using Lipofectamine 2000: 0.0%
lipid/DNA 10 w/w
  Luciferase expression as a percentage of that achieved using Lipofectamine 2000: 0.0%
lipid/DNA 15 w/w
  Luciferase expression as a percentage of that achieved using Lipofectamine 2000: 0.0%
lipid/DNA 20 w/w
  Luciferase expression as a percentage of that achieved using Lipofectamine 2000: 0.0%
lipid/DNA 25 w/w
  Luciferase expression as a percentage of that achieved using Lipofectamine 2000: 0.0%

## CCCCCCCCCCCCCCCOC(=O)CCN(CCC(=O)OCCCCCCCCCCCCCCC)CC(OC)OC [LG13]
lipid/DNA 2.5 w/w
  Luciferase expression as a percentage of that achieved using Lipofectamine 2000: 0.0%
lipid/DNA 5 w/w
  Luciferase expression as a percentage of that achieved using Lipofectamine 2000: 0.0%
lipid/DNA 10 w/w
  Luciferase expression as a percentage of that achieved using Lipofectamine 2000: 0.0%
lipid/DNA 15 w/w
  Luciferase expression as a percentage of that achieved using Lipofectamine 2000: 0.0%
lipid/DNA 20 w/w
  Luciferase expression as a percentage of that achieved using Lipofectamine 2000: 0.0%
lipid/DNA 25 w/w
  Luciferase expression as a percentage of that achieved using Lipofectamine 2000: 0.0%

## CCCCCCCCCCCCCCCOC(=O)CCN(CCC(=O)OCCCCCCCCCCCCCCC)CC1CCCO1 (stereo not drawn) [LG15]
lipid/DNA 2.5 w/w
  Luciferase expression as a percentage of that achieved using Lipofectamine 2000: 0.7%
lipid/DNA 5 w/w
  Luciferase expression as a percentage of that achieved using Lipofectamine 2000: 0.8%
lipid/DNA 10 w/w
  Luciferase expression as a percentage of that achieved using Lipofectamine 2000: 0.5%
lipid/DNA 15 w/w
  Luciferase expression as a percentage of that achieved using Lipofectamine 2000: 0.6%
lipid/DNA 20 w/w
  Luciferase expression as a percentage of that achieved using Lipofectamine 2000: 0.7%
lipid/DNA 25 w/w
  Luciferase expression as a percentage of that achieved using Lipofectamine 2000: 0.8%

## CCCCCCCCCCCCCCCOC(=O)CCN(CCC(=O)OCCCCCCCCCCCCCCC)CCc1ccc(OC)c(OC)c1 [LG17]
lipid/DNA 2.5 w/w
  Luciferase expression as a percentage of that achieved using Lipofectamine 2000: 0.4%
lipid/DNA 5 w/w
  Luciferase expression as a percentage of that achieved using Lipofectamine 2000: 0.3%
lipid/DNA 10 w/w
  Luciferase expression as a percentage of that achieved using Lipofectamine 2000: 0.1%
lipid/DNA 15 w/w
  Luciferase expression as a percentage of that achieved using Lipofectamine 2000: 0.0%
lipid/DNA 20 w/w
  Luciferase expression as a percentage of that achieved using Lipofectamine 2000: 0.3%
lipid/DNA 25 w/w
  Luciferase expression as a percentage of that achieved using Lipofectamine 2000: 0.3%

## CCCCCCCCCCCCCCCOC(=O)CCN(CCCO)CCC(=O)OCCCCCCCCCCCCCCC [LG20]
lipid/DNA 2.5 w/w
  Luciferase expression as a percentage of that achieved using Lipofectamine 2000: 2.0%
lipid/DNA 5 w/w
  Luciferase expression as a percentage of that achieved using Lipofectamine 2000: 2.5%
lipid/DNA 10 w/w
  Luciferase expression as a percentage of that achieved using Lipofectamine 2000: 0.4%
lipid/DNA 15 w/w
  Luciferase expression as a percentage of that achieved using Lipofectamine 2000: 0.2%
lipid/DNA 20 w/w
  Luciferase expression as a percentage of that achieved using Lipofectamine 2000: 0.1%
lipid/DNA 25 w/w
  Luciferase expression as a percentage of that achieved using Lipofectamine 2000: 0.1%
